The results in this text go back to patent US11865176B2, “Compositions and methods of modulating anti-tumor immunity” (Dana-Farber Cancer Institute, Inc., priority 2016, dated 2024).

The subject of data set [1] is PD-1-overexpressing Jurkat cells. Briefly: Small molecule screen: IL2 secretion (AlphaLISA) from stimulated PD-1-overexpressing Jurkat cells. In kind it is cell-based, human. The essentials: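 Cells (100,000/well) with compound at 3.3 μM final, stimulated by α-CD3/α-CD28/α-PD-1 Dynabeads at an 8:1 bead:cell ratio. IL2 in supernatants measured by AlphaLISA. Hits scored ≥3 SD from the mean of DMSO-treated, α-PD-1-bead-stimulated controls.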
A general note: Alpha assays give light when donor and acceptor beads are brought close together.

Data set [2] concerns the target T1, regulatory domain of human NFATc3 (residues 1-400) (UniProt Q12968).
T1 sequence: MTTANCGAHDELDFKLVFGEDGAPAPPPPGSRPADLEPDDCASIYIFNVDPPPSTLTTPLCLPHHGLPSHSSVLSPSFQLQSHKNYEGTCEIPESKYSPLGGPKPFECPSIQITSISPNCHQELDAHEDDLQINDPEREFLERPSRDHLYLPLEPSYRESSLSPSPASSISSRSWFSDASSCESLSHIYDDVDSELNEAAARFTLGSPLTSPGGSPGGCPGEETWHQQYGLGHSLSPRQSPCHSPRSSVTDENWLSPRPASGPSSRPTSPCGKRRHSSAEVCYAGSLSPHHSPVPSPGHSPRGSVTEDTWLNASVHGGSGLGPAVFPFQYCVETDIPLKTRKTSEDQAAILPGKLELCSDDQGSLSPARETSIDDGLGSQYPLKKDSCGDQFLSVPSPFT

Setting [3] is: IL2 level, replicate 1, 3.3 μM compound, α-CD3/α-CD28/α-PD-1 beads.
Where [4] appears, read: IL2 level, replicate 2, 3.3 μM compound, α-CD3/α-CD28/α-PD-1 beads.
Setting [5] is: average of replicate Z scores, 3.3 μM compound.

Counter-ions that a name gives are not always drawn. Like-named read-outs stand apart in the source and are kept apart here.

`CCOC(=O)c1c(C)[nH]c(/C=C2\C(=O)Nc3ccccc32)c1C` [VEGF Receptor 2 Kinase Inhibitor I] registered a Zscore_1 in data set [1] (setting [3]) of −0.8038. Further, the Zscore_2 in data set [1] (setting [4]) is −1.721. Further, the Zscore_AVG in data set [1] (setting [5]) is given as −1.262.
Take `O=C(Nc1ccc(Cl)cc1)c1ccccc1NCc1ccncc1` [VEGF Receptor Tyrosine Kinase Inhibitor II]: in data set [1] (setting [3]), the Zscore_1 was −1.404. The compound also gave a Zscore_2 in data set [1] (setting [4]) of −0.1009. Moreover, in data set [1] (setting [5]), the Zscore_AVG was −0.7522.
The compound `COc1cc2ncnc(Nc3cccc(O)c3)c2cc1OC` [WHI-P180, Hydrochloride] showed a Zscore_1 in data set [1] (setting [3]) of −4.627. This compound showed a Zscore_2 in data set [1] (setting [4]) of −4.112. In addition, the Zscore_AVG in data set [1] (setting [5]) is −4.37.
In the same order, the values of `CCCCn1c2ccc(O)cc2c2c3c(c(-c4ccccc4Cl)cc21)C(=O)NC3=O` [Wee1 Inhibitor II] are 0.7541, −1.786 and −0.5162.
In the same order, the values of `O=C1NC(=O)c2c1c(-c1ccccc1Cl)cc1[nH]c3ccc(O)cc3c21` [Wee1 Inhibitor] are −0.6621, −2.209 and −1.436.
The corresponding values for `CCCCCCCCCCCCCCCCn1cc[n+](Cc2ccccc2)c1C.[I-]` [eEF-2 Kinase Inhibitor, NH125] are −4.759, −7.332 and −6.046.
The compound `Oc1ccc2ccccc2c1SSc1c(O)ccc2ccccc12` [p21-Activated Kinase Inhibitor III, IPA-3] had a Zscore_1 in data set [1] (setting [3]) of −0.461. The Zscore_2 in data set [1] (setting [4]) is reported as 0.6426. In data set [1] (setting [5]), this compound gave a Zscore_AVG of 0.09079.
The corresponding values for `CSc1nc(-c2ccnc(NC(C)c3ccccc3)c2)c(-c2ccc(F)cc2)[nH]1` (stereo not drawn) [p38 MAP Kinase Inhibitor III] are −0.7009, 0.6426 and −0.02917.
`O=S(=O)(c1c(O)c(Cl)cc(Cl)c1Cl)c1c(O)c(Cl)cc(Cl)c1Cl` [p38 MAP Kinase Inhibitor IV] displayed a Zscore_1 in data set [1] (setting [3]) of −0.6495. The Zscore_2 in data set [1] (setting [4]) came to 0.005311. Further, the Zscore_AVG in data set [1] (setting [5]) was −0.3221.
The compound `COc1cc(SC)ccc1C(=O)N1CCC(Cc2ccccc2)CC1` [p38 MAP Kinase Inhibitor VI, JX401] registered a Zscore_1 in data set [1] (setting [3]) of −0.3753. The same compound displayed a Zscore_2 in data set [1] (setting [4]) of −0.9241. The same compound had a Zscore_AVG in data set [1] (setting [5]) of −0.6497.
The corresponding values for `NC(=O)c1ccc2[nH]ccc2c1` [p38 MAP Kinase Inhibitor VII, SD-169] are 0.7558, 1.067 and 0.9116.
Turning to `O=c1c(-c2ccc(F)cc2)c(-c2ccncc2)[nH]n1-c1ccc(Cl)cc1` [p38 MAP Kinase Inhibitor], in data set [1], the Zscore_1 is −0.7181, the Zscore_2 is listed as −1.986 and the Zscore_AVG is −1.352.
The compound “Akt Inhibitor XII, Isozyme- Selective, Akti-2” returned a Zscore_1 in data set [1] (setting [3]) of 5.536. In data set [1] (setting [4]), this compound displayed a Zscore_2 of 15.29. This compound had a Zscore_AVG in data set [1] (setting [5]) of 10.41.
CaMKII Inhibitor, CK59: in data set [1] (setting [3]), the Zscore_1 is −0.8337. Moreover, the Zscore_2 in data set [1] (setting [4]) is −0.5161. For the same compound, the Zscore_AVG in data set [1] (setting [5]) was −0.6749.
Cdk Inhibitor, p35 gave a Zscore_1 in data set [1] (setting [3]) of −1.994. The Zscore_2 in data set [1] (setting [4]) is recorded as −1.733. Moreover, the Zscore_AVG in data set [1] (setting [5]) was −1.864.
The corresponding values for G&omul; 7874, Hydrochloride are −4.465, −6.385 and −5.425.
The corresponding values for GTP-14564 are −0.5638, 2.605 and 1.021.
In the same order, the values of IKK Inhibitor VII are −6.154, −3.033 and −4.594.
IKK-2 Inhibitor XI: the Zscore_1 in data set [1] (setting [3]) is listed as −4.485. In data set [1] (setting [4]), this compound had a Zscore_2 of −6.012. This compound also returned a Zscore_AVG in data set [1] (setting [5]) of −5.248.
In the same order, the values of Indirubin-3′-monoxime are 2.085, 1.884 and 1.985.
The corresponding values for Isogranulatinude are 1.39, 4.572 and 2.981.
The corresponding values for MEK1/2 Inhibitor II are −8.274, −7.766 and −8.02.
PDK1/Akt/Flt Dual Pathway Inhibitor displayed a Zscore_1 in data set [1] (setting [3]) of −10.05. This compound displayed a Zscore_2 in data set [1] (setting [4]) of −10.59. In data set [1] (setting [5]), this compound came in with a Zscore_AVG of −10.32.
The corresponding values for PI 3-K&gamme;/CKII Inhibitor are −0.8209, −0.5789 and −0.6999.
For the compound PI 3-KbInhibitor II, in data set [1] (setting [4]), the Zscore_2 worked out at 2.315. This compound also registered a Zscore_AVG in data set [1] (setting [5]) of 1.096.
Compound PI 3-Kγ Inhibitor VII returned a Zscore_1 in data set [1] (setting [3]) of −0.08397. Also, the Zscore_2 in data set [1] (setting [4]) is listed as −0.6851. Further, in data set [1] (setting [5]), the Zscore_AVG was −0.3845.
In data set [1] (setting [3]), PIM1 Kinase Inhibitor II registered a Zscore_1 of −1.398. In addition, in data set [1] (setting [4]), the Zscore_2 is given as −0.8562. Also, the Zscore_AVG in data set [1] (setting [5]) is on record as −1.127.
PIM1 Kinase Inhibitor IV registered a Zscore_1 in data set [1] (setting [3]) of −1.455. In addition, the Zscore_2 in data set [1] (setting [4]) is recorded as −0.7294. In data set [1] (setting [5]), this compound had a Zscore_AVG of −1.092.
Take PIM1/2 Kinase Inhibitor V: the Zscore_1 in data set [1] (setting [3]) is recorded as −0.917. The compound further came in with a Zscore_2 in data set [1] (setting [4]) of 0.2008. In data set [1] (setting [5]), this compound had a Zscore_AVG of −0.3581.
In the same order, the values of Polo-like Kinase Inhibitor I are −0.8886, 0.6237 and −0.1325.
In the same order, the values of Scytonemin, Lyngbya sp. are 0.1217, −0.3399 and −0.1091.
The compound Staurosporine, N-benzoyl- showed a Zscore_1 in data set [1] (setting [3]) of −5.987. This compound also came in with a Zscore_2 in data set [1] (setting [4]) of −7.072. In data set [1] (setting [5]), this compound yielded a Zscore_AVG of −6.529.
The compound Tpl2 Kinase Inhibitor II had a Zscore_1 in data set [1] (setting [3]) of −2.398. In data set [1] (setting [4]), this compound had a Zscore_2 of −4.19. In addition, in data set [1] (setting [5]), the Zscore_AVG was −3.294.
In the same order, the values of VEGFR Tyrosine Kinase Inhibitor IV are −0.8723, −2.305 and −1.589.
p38 MAP Kinase Inhibitor VIII: the Zscore_1 in data set [1] (setting [3]) is −1.144. Further, the Zscore_2 in data set [1] (setting [4]) is recorded as −1.448. The Zscore_AVG in data set [1] (setting [5]) is −1.296.
As for recombinant CDK4/cyclin D1, in data set [2], the “in vitro phosphorylation of 15N-labeled NFATc3 (1-400), followed by 2D 15N-HSQC NMR” value is on record as “However, this did not occur when NFAT4 was incubated with CDK4”.
